Experimental data: paper PMC5817723, “^99mTc-HYNIC-(tricine/EDDA)-FROP peptide for MCF-7 breast tumor targeting and imaging” (Journal of Biomedical Science, 2018)
Residues, ends and D or L forms follow the SMILES beside them. *: point of attachment. HYNIC = NNc1ccc(C(=O)*)cn1

Legend:
[1] = test system: MCF-7, A-549 SKOV-3, PC-3, T47D and HFFF2 cell lines; experiment: Cellular uptake on different cell lines; type: cell-based, human; details: 40 nM, 37 °C, 1 h
Protocol: The cellular uptake studies of ^99mTc-HYNIC-(tricine/EDDA)-FROP were performed on MCF-7, A-549 SKOV-3, PC-3, T47D and HFFF2 cell lines. The cells (5 × 10^5) were seeded in 12-well plates overnight and incubated with ^99mTc-HYNIC-FROP (40 nM) at 37 °C for 1 h. Incubation of the samples was terminated by removing medium and washing with cold serum-free medium. Thereafter, the cells were detached by trypsin and the radioactivity in the cell suspension was quantified.

[2] = test system: MCF-7 tumor bearing mouse; experiment: Planar gamma camera tumor imaging; type: in vivo; details: MCF-7 xenograft nude mouse, i.v., 15 min p.i.
Protocol: For gamma camera imaging, MCF-7 tumor bearing mouse was intravenously injected through the tail with ^99mTc-HYNIC-FROP. After 15 min p.i. the mouse immediately was anesthetized using ketamine/xylazine and whole-body dynamic imaging was conducted. The imaging was performed at the department of radiology at Mazandaran Hospital by a dual-head e.cam gamma camera (Siemens Medical Systems, Inc.), equipped with a low-energy, high-resolution collimator. The evaluation of the image was performed using an e-soft (Siemens Medical Systems).

[3] = 5 × 10^5 cells, cell-associated radioactivity

## CSCC[C@H](NC(=O)[C@H](CC(C)C)NC(=O)[C@H](CCC(=O)O)NC(=O)[C@H](Cc1ccc(O)cc1)NC(=O)[C@H](CC(=O)O)NC(=O)[C@@H](N)CCC(=O)O)C(=O)N[C@@H](CC(=O)O)C(=O)N[C@@H](CC(C)C)C(=O)N[C@@H](CC(C)C)C(=O)N[C@@H](C)C(=O)N[C@@H](Cc1ccc(O)cc1)C(=O)N[C@@H](CC(C)C)C(=O)N[C@@H](CCCCNC(=O)c1ccc(NN)nc1)C(=O)O [^99mTc-HYNIC-FROP, metal not drawn] (H-EDYELMDLLAYLK(HYNIC)-OH)
[1]; [3]
  MCF-7/A-549 ratio of uptake: 8.2
  MCF-7/PC-3 ratio of uptake: 2.3
  MCF-7/SKOV-3 ratio of uptake: 8.8
  MCF-7/T47D ratio of uptake: 4.5
[1]; HFFF2 = normal human fibroblast
  MCF-7/HFFF2 ratio of uptake: 9.7
[2]
  tumor visualization by planar gamma imaging: tumor was clearly visualized
[2]; listed as 99mTc-HYNIC-(tricine/EDDA)-FROP
  tumor visualization by planar gamma imaging: tumor was clearly visible
